Here are results for 35 compounds from patent US20260048047A1, “SMALL-MOLECULE ACTIVATORS OF MYCOBACTERIUM TUBERCULOSIS ADENYLYL CYCLASE” (priority 2022, published 2026).

Usually EC50 stands for the concentration at which the effect is half-maximal.

This test relates to M. tuberculosis. In words: Extracellular activity against M. tuberculosis in cholesterol media (Alamar Blue reduction assay). In kind it is cell-based, Mycobacterium tuberculosis. The following applies: Mycobacterium tuberculosis, 240 h, 7H12-Cholesterol media, 10 days; read-out: Cholesterol broth: alamar blue--EC50.

On to `Cc1nonc1CC(=O)N1CCC(c2nc(C3CCCC4CC43)no2)CC1` (centres unmarked) [Compound 72, 1-(4-(3-(bicyclo[4.1.0]heptan-2-yl)-1,2,4-oxadiazol-5-yl)piperidin-1-yl)-2-(4-methyl-1,2,5-oxadiazol-3-yl)ethan-1-one], for which the EC50 is more than 10000 nM.

As for `Cc1nonc1CC(=O)N1CCC(c2nc(C3CCCCC3)no2)CC1` [Compound 73, 1-(4-(3-cyclohexyl-1,2,4-oxadiazol-5-yl)piperidin-1-yl)-2-(4-methyl-1,2,5-oxadiazol-3-yl)ethan-1-one], the EC50 was 674 nM.

With `Cc1nonc1CC(=O)N1CCC(n2nnc(C3CCCCC3)n2)CC1` [Compound 74, 1-(4-(5-cyclohexyl-2H-tetrazol-2-yl)piperidin-1-yl)-2-(4-methyl-1,2,5-oxadiazol-3-yl)ethan-1-one], the EC50 worked out at 2070 nM.

In the case of `Cc1nonc1CC(=O)N1CCC(O)(c2nc(C3CCCCC3)no2)CC1` [Compound 75, 1-(4-(3-cyclohexyl-1,2,4-oxadiazol-5-yl)-4-hydroxypiperidin-1-yl)-2-(4-methyl-1,2,5-oxadiazol-3-yl)ethan-1-one], the EC50 was more than 10000 nM.

Turning to `Cc1nonc1CC(=O)N1CCC(c2nc(C3CCOCC3)no2)CC1` [Compound 76, 2-(4-methyl-1,2,5-oxadiazol-3-yl)-1-(4-(3-(tetrahydro-2H-pyran-4-yl)-1,2,4-oxadiazol-5-yl)piperidin-1-yl)ethan-1-one], the EC50 was more than 10000 nM.

Regarding `Cc1nonc1CC(=O)N1CCC(c2noc(C34CCC(CC3)C4)n2)CC1` [Compound 77, 1-(4-(5-(bicyclo[2.2.1]heptan-1-yl)-1,2,4-oxadiazol-3-yl)piperidin-1-yl)-2-(4-methyl-1,2,5-oxadiazol-3-yl)ethan-1-one], the EC50 was more than 25000 nM.

On to `Cc1nonc1CC(=O)N1CCC(c2nc(C34CCC(CC3)C4)no2)CC1` [Compound 78, 1-(4-(3-(bicyclo[2.2.1]heptan-1-yl)-1,2,4-oxadiazol-5-yl)piperidin-1-yl)-2-(4-methyl-1,2,5-oxadiazol-3-yl)ethan-1-one], for which the EC50 amounted to 3760 nM.

With `Cc1nonc1CC(=O)N1CCC(n2ccc(-c3ccccc3)n2)CC1` [Compound 79, 2-(4-methyl-1,2,5-oxadiazol-3-yl)-1-(4-(3-phenyl-1H-pyrazol-1-yl)piperidin-1-yl)ethan-1-one], the EC50 is more than 10000 nM.

With `Cc1nonc1CC(=O)N1CCC(n2nnc(-c3ccccc3)n2)CC1` [Compound 80, 2-(4-methyl-1,2,5-oxadiazol-3-yl)-1-(4-(5-phenyl-2H-tetrazol-2-yl)piperidin-1-yl)ethan-1-one, reference compound], the EC50 turned out to be 1580 nM.

In the case of `Cc1nnn(C2CCN(C(=O)Cc3nonc3C)CC2)n1` [Compound 81, 2-(4-methyl-1,2,5-oxadiazol-3-yl)-1-(4-(5-methyl-2H-tetrazol-2-yl)piperidin-1-yl)ethan-1-one], the EC50 is more than 10000 nM.

On to `Cc1noc(C2CCN(C(=O)Cc3nonc3C)CC2)n1` [Compound 82, 1-(4-(3-methyl-1,2,4-oxadiazol-5-yl)piperidin-1-yl)-2-(4-methyl-1,2,5-oxadiazol-3-yl)ethan-1-one], for which the concentration giving a half-maximal response (EC50) was more than 10000 nM.

As for `Cc1nonc1CC(=O)N1CCC(c2nc(C(C)C)no2)CC1` [Compound 83, 1-(4-(3-isopropyl-1,2,4-oxadiazol-5-yl)piperidin-1-yl)-2-(4-methyl-1,2,5-oxadiazol-3-yl)ethan-1-one], the EC50 is more than 10000 nM.

As to `Cc1nonc1CC(=O)N1CCC(c2nc(C3(C)CCCCC3)no2)CC1` [Compound 84, 2-(4-methyl-1,2,5-oxadiazol-3-yl)-1-(4-(3-(1-methylcyclohexyl)-1,2,4-oxadiazol-5-yl)piperidin-1-yl)ethan-1-one], the EC50 was 2130 nM.

With `Cc1nonc1CC(=O)N1CCC(c2nc(C3(C)COC3)no2)CC1` [Compound 85, 2-(4-methyl-1,2,5-oxadiazol-3-yl)-1-(4-(3-(3-methyloxetan-3-yl)-1,2,4-oxadiazol-5-yl)piperidin-1-yl)ethan-1-one], the EC50 was more than 10000 nM.

On to `Cc1nonc1CC(=O)N1CCC(c2nc(C3CC3(C)C)no2)CC1` (centres unmarked) [Compound 86, 1-(4-(3-(2,2-dimethylcyclopropyl)-1,2,4-oxadiazol-5-yl)piperidin-1-yl)-2-(4-methyl-1,2,5-oxadiazol-3-yl)ethan-1-one], for which the EC50 is 1810 nM.

With `Cc1nonc1CC(=O)N1CCC(c2nc(C3CCC(C)(C)C3)no2)CC1` (centres unmarked) [Compound 87, 1-(4-(3-(3,3-dimethylcyclopentyl)-1,2,4-oxadiazol-5-yl)piperidin-1-yl)-2-(4-methyl-1,2,5-oxadiazol-3-yl)ethan-1-one], the EC50 was 249 nM.

Consider `Cc1nonc1CC(=O)N1CCC(c2nc(C3CCC(C)(C)CC3)no2)CC1` [Compound 88, 1-(4-(3-(4,4-dimethylcyclohexyl)-1,2,4-oxadiazol-5-yl)piperidin-1-yl)-2-(4-methyl-1,2,5-oxadiazol-3-yl)ethan-1-one], for which the EC50 was found to be 181 nM.

Take `Cc1nonc1CC(=O)N1CCC(c2nc(C3CCCC(C)(C)C3)no2)CC1` (centres unmarked) [Compound 89, 1-(4-(3-(3,3-dimethylcyclohexyl)-1,2,4-oxadiazol-5-yl)piperidin-1-yl)-2-(4-methyl-1,2,5-oxadiazol-3-yl)ethan-1-one]: the EC50 amounted to 512 nM.

Regarding `Cc1nonc1CC(=O)N1CCC(c2noc(C34CC(C)(C3)C4)n2)CC1` [Compound 90, 2-(4-methyl-1,2,5-oxadiazol-3-yl)-1-(4-(5-(3-methylbicyclo[1.1.1]pentan-1-yl)-1,2,4-oxadiazol-3-yl)piperidin-1-yl)ethan-1-one], the EC50 was 2050 nM.

Regarding `COC(C)c1noc(C2CCN(C(=O)Cc3nonc3C)CC2)n1` (centres unmarked) [Compound 91, 1-(4-(3-(1-methoxyethyl)-1,2,4-oxadiazol-5-yl)piperidin-1-yl)-2-(4-methyl-1,2,5-oxadiazol-3-yl)ethan-1-one], the EC50 is more than 10000 nM.

On to `COCc1noc(C2CCN(C(=O)Cc3nonc3C)CC2)n1` [Compound 92, 1-(4-(3-(methoxymethyl)-1,2,4-oxadiazol-5-yl)piperidin-1-yl)-2-(4-methyl-1,2,5-oxadiazol-3-yl)ethan-1-one], for which the EC50 is more than 10000 nM.

Take `Cc1nonc1CC(=O)N1CCC(c2nc(-c3ccc(Cl)cc3Cl)no2)CC1` [Compound 94, 1-(4-(3-(2,4-dichlorophenyl)-1,2,4-oxadiazol-5-yl)piperidin-1-yl)-2-(4-methyl-1,2,5-oxadiazol-3-yl)ethan-1-one]: the EC50 is 146 nM.

As to `Cc1nonc1CC(=O)N1CCC(c2nc(-c3ccc(Cl)c(Cl)c3)no2)CC1` [Compound 95, 1-(4-(3-(3,4-dichlorophenyl)-1,2,4-oxadiazol-5-yl)piperidin-1-yl)-2-(4-methyl-1,2,5-oxadiazol-3-yl)ethan-1-one], the EC50 came to 64.4 nM.

As for `Cc1nonc1CC(=O)N1CCC(O)(c2nc(-c3ccc(Cl)c(Cl)c3)no2)CC1` [Compound 96, 1-(4-(3-(3,4-dichlorophenyl)-1,2,4-oxadiazol-5-yl)-4-hydroxypiperidin-1-yl)-2-(4-methyl-1,2,5-oxadiazol-3-yl)ethan-1-one], the concentration for a half-maximal effect (EC50) came out at 610 nM.

In the case of `Cc1nonc1CC(=O)N1CCC(n2nnc(-c3ccc(Cl)cc3)n2)CC1` [Compound 97, 1-(4-(5-(4-chlorophenyl)-2H-tetrazol-2-yl)piperidin-1-yl)-2-(4-methyl-1,2,5-oxadiazol-3-yl)ethan-1-one], the EC50 is 149 nM.

With `Cc1nonc1CC(=O)N1CCC(c2nc(-c3ccc(Cl)cc3)no2)CC1` [Compound 98, 1-(4-(3-(4-chlorophenyl)-1,2,4-oxadiazol-5-yl)piperidin-1-yl)-2-(4-methyl-1,2,5-oxadiazol-3-yl)ethan-1-one], the EC50 worked out at 114 nM.

Take `Cc1nonc1CC(=O)N1CCC(c2nc(-c3cccc(Cl)c3)no2)CC1` [Compound 99, 1-(4-(3-(3-chlorophenyl)-1,2,4-oxadiazol-5-yl)piperidin-1-yl)-2-(4-methyl-1,2,5-oxadiazol-3-yl)ethan-1-one]: the EC50 was determined as 530 nM.

Regarding `Cc1nonc1CC(=O)N1CCC(c2nc(C3CCC(C(F)(F)F)CC3)no2)CC1` (centres unmarked) [Compound 100, 2-(4-methyl-1,2,5-oxadiazol-3-yl)-1-(4-(3-(4-(trifluoromethyl)cyclohexyl)-1,2,4-oxadiazol-5-yl)piperidin-1-yl)ethan-1-one], the EC50 came to 688 nM.

With `Cc1nonc1CC(=O)N1CCC(c2nc(-c3ccc(Cl)c(OC(F)(F)F)c3)no2)CC1` [Compound 101], the EC50 was 731 nM.

`Cc1nonc1CC(=O)N1CCC(c2nc(-c3ccc(OC(F)(F)F)cc3)no2)CC1` [Compound 102, 2-(4-methyl-1,2,5-oxadiazol-3-yl)-1-(4-(3-(4-(trifluoromethoxy)phenyl)-1,2,4-oxadiazol-5-yl)piperidin-1-yl)ethan-1-one]: the EC50 is 167 nM.

In the case of `Cc1nonc1CC(=O)N1CCC(c2nc(-c3cccc(OC(F)(F)F)c3)no2)CC1` [Compound 103, 2-(4-methyl-1,2,5-oxadiazol-3-yl)-1-(4-(3-(3-(trifluoromethoxy)phenyl)-1,2,4-oxadiazol-5-yl)piperidin-1-yl)ethan-1-one], the EC50 is 383 nM.

With `Cc1nonc1CC(=O)N1CCC(c2nc(-c3ccccc3OC(F)(F)F)no2)CC1` [Compound 104, 2-(4-methyl-1,2,5-oxadiazol-3-yl)-1-(4-(3-(2-(trifluoromethoxy)phenyl)-1,2,4-oxadiazol-5-yl)piperidin-1-yl)ethan-1-one], the EC50 came out at 2960 nM.

With `Cc1nonc1CC(=O)N1CCC(c2nc(-c3ccc(Cl)c(C(F)(F)F)c3)no2)CC1` [Compound 105, 1-(4-(3-(4-chloro-3-(trifluoromethyl)phenyl)-1,2,4-oxadiazol-5-yl)piperidin-1-yl)-2-(4-methyl-1,2,5-oxadiazol-3-yl)ethan-1-one], the EC50 worked out at 744 nM.

`Cc1nonc1CC(=O)N1CCC(c2nc(-c3ccc(C(F)(F)F)cc3)no2)CC1` [Compound 106, 2-(4-methyl-1,2,5-oxadiazol-3-yl)-1-(4-(3-(4-(trifluoromethyl)phenyl)-1,2,4-oxadiazol-5-yl)piperidin-1-yl)ethan-1-one]: the EC50 was found to be 754 nM.

Turning to `Cc1nonc1CC(=O)N1CCC(c2nc(-c3ccc(OC(F)F)cc3)no2)CC1` [Compound 108, 1-(4-(3-(4-(difluoromethoxy)phenyl)-1,2,4-oxadiazol-5-yl)piperidin-1-yl)-2-(4-methyl-1,2,5-oxadiazol-3-yl)ethan-1-one], the EC50 turned out to be 716 nM.
